Measurements: patent US7196110B2, “N-substituted tricyclic 3-aminopyrazoles as inhibitors for the treatment of cell proliferative disorders” (Janssen Phamaceutica N.V., priority 2002, dated 2007)
pIC50: −log10 of the molar value.

Experiments:
c-Abl kinase = c-Abl kinase (Abelson murine leukemia virus, UniProt P00521); test: Inhibition of c-Abl kinase activity (cell-free, Abl peptide substrate, 33P Flashplate); format: biochemical; details: IC50 for the c-Abl kinase activity
[1] = molecular target: T1, PDGF-receptor beta enzyme comprising the tyrosine kinase domain (Homo sapiens, UniProt P09619); test: Inhibition of PDGF-receptor kinase activity (cell-free, PLC1 peptide, 33P Flashplate); format: biochemical; details: PDGF-R kinase activity; for inhibition at 10 µM: compound at 10 uM, read-out: Percent Inhibition @ 10 uM; for pIC50: read-out: IC50
T1 construct: from amino acid 545 to 1106 of GenBank Access NO: AAA36427
Method in brief: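 Recombinant kinase domain (aa 545–1106) phosphorylated a biotinylated PLC1 peptide with 5 μM ATP plus 33P-γ-ATP, in Tris pH 8, MgCl2, Na3VO4 and 1 mM DTT, for 60 min at 30 °C. Retained 33P was counted after washing. IC50 is the concentration halving activity versus no-inhibitor reactions.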

T1 sequence (P09619 545-1106): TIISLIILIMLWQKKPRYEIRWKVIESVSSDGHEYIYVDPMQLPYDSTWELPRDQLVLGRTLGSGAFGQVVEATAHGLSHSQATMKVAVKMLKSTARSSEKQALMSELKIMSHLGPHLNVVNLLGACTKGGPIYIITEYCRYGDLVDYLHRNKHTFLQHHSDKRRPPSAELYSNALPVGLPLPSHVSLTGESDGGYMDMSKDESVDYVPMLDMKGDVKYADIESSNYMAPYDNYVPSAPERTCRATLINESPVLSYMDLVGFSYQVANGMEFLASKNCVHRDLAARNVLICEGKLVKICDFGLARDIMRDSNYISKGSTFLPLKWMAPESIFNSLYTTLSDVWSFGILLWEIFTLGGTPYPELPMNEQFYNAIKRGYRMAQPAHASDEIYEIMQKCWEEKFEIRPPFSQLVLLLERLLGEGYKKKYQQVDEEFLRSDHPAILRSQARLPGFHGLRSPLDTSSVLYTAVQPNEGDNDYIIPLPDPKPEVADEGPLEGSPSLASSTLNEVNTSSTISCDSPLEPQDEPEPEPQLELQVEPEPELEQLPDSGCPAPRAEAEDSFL
c-Abl kinase, sequence (P00521 115-385): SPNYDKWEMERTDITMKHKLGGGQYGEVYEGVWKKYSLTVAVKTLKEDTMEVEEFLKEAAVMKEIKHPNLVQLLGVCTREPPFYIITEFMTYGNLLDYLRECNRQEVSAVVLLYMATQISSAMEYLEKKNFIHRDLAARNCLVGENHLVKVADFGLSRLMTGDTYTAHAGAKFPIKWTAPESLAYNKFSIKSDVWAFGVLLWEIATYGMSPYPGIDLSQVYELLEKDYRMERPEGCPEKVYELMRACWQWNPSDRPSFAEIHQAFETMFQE

Row | Structure (SMILES) | pIC50 (c-Abl kinase) | inhibition at 10 µM [1] | pIC50 [1]
1 | CCOc1cc2c(cc1OCCCO)Cc1c-2n[nH]c1Nc1cccc(OC)c1 [Compound 384, 3-[7-Ethoxy-3-(3-methoxy-phenylamino)-2,4-dihydro-indeno[1,2-c]pyrazol-6-yloxy]-propan-1-ol] | 8.40 | 100% | 8.25
2 | OCC(O)COc1cccc2c1Cc1c-2n[nH]c1Nc1cccc(Br)c1 (stereo not shown) [Compound 468, 3-[3-(3-Bromo-phenylamino)-2,4-dihydro-indeno[1,2-c]pyrazol-5-yloxy]-propane-1,2-diol] | 6.22 | 95.5% | 7.32
3 | CCOc1cc2c(cc1OCCCO)Cc1c-2n[nH]c1Nc1cccc(F)c1 [Compound 382, 3-[7-Ethoxy-3-(3-fluoro-phenylamino)-2,4-dihydro-indeno[1,2-c]pyrazol-6-yloxy]-propan-1-ol] | 7.72 | 100% | 7.93
4 | OCCCOc1cc2c(cc1OCCCO)-c1n[nH]c(Nc3ccc(F)c(Cl)c3)c1C2 [Compound 389, 3-[3-(3-Chloro-4-fluoro-phenylamino)-7-(3-hydroxy-propoxy)-2,4-dihydro-indeno[1,2-c]pyrazol-6-yloxy]-propan-1-ol] | 7.77 | 98% | 7.82
5 | COc1cc2c(cc1OCCCN(C)C)Cc1c-2n[nH]c1Nc1ccc(F)c(Cl)c1 [Compound 200, (3-Chloro-4-fluoro-phenyl)-[6-(3-dimethylamino-propoxy)-7-methoxy-2,4-dihydro-indeno[1,2-c]pyrazol-3-yl]-amine] | 7.70 | 87% | 8.70
6 | COCCCOc1ccc2c(c1)Cc1c-2n[nH]c1Nc1ccccc1 [Compound 140, [6-(3-Methoxy-propoxy)-2,4-dihydro-indeno[1,2-c]pyrazol-3-yl]-phenyl-amine] | 5.85 | 56.5% | 7.86
7 | COCCCOc1cc2c(cc1OCCCOC)-c1n[nH]c(Nc3cccc(OC)c3)c1C2 [Compound 284, [6,7-Bis-(3-methoxy-propoxy)-2,4-dihydroindeno[1,2-c]pyrazol-3-yl]-(3-methoxy-phenyl)-amine] | 7.16 | 84.6% | 8.29
8 | COc1cc2c(cc1OCC(O)CN1CCCC1)Cc1c-2n[nH]c1Nc1cccc(Cl)c1 (stereo not shown) [Compound 282, 1-[3-(3-Chloro-phenylamino)-7-methoxy-2,4-dihydro-indeno[1,2-c]pyrazol-6-yloxy]-3-pyrrolidin-1-yl-propan-2-ol] | 7.37 | 99% | 10.05
9 | COc1cc2c(cc1OCCCO)Cc1c-2n[nH]c1Nc1cccc(Cl)c1 [Compound 268, 3-[3-(3-Chloro-phenylamino)-7-methoxy-2,4-dihydro-indeno[1,2-c]pyrazol-6-yloxy]-propan-1-ol] | 7.70 | 84% | 8.95
10 | CCCC(=O)OCn1nc(Nc2cccc(F)c2)c2c1-c1cc(OC)c(OC)cc1C2 [Compound 490, Butyric acid 3-(3-fluoro-phenylamino)-6,7-dimethoxy-4H-indeno[1,2-c]pyrazol-1-ylmethyl ester] | 7.42 | 96% | 7.55
11 | COc1cc2c(cc1OC)-c1n[nH]c(Nc3cc(F)cc(F)c3)c1C2 [Compound 207, (3,5-Difluoro-phenyl)-(6,7-dimethoxy-2,4-dihydro-indeno[1,2-c]pyrazol-3-yl)-amine] | 7.21 | 89% | 8.00
12 | COc1cc2c(cc1OC)-c1n[nH]c(Nc3ccc(F)cc3)c1C2 [Compound 13, (6,7-Dimethoxy-2,4-dihydro-indeno[1,2-c]pyrazol-3-yl)-(4-fluoro-phenyl)-amine] | 6.76 | 91% | 8.19
13 | COc1cccc(Nc2[nH]nc3c2Cc2cc(OCC(O)CN4CCCC4)c(OC)cc2-3)c1 (stereo not shown) [Compound 270, 1-[7-Methoxy-3-(3-methoxy-phenylamino)-2,4-dihydro-indeno[1,2-c]pyrazol-6-yloxy]-3-pyrrolidin-1-yl-propan-2-ol] | 7.44 | 107% | 9.37
14 | COc1cc2c(cc1OC)-c1n[nH]c(Nc3ccccc3)c1C2 [Compound 2, (6,7-Dimethoxy-2,4-dihydro-indeno[1,2-c]pyrazol-3-yl)-phenyl-amine] | 7.96 | 91% | 8.22
15 | COc1ccc2c(c1)-c1n[nH]c(Nc3cccc(F)c3)c1C2 [Compound 172, (3-Fluoro-phenyl)-(7-methoxy-2,4-dihydro-indeno[1,2-c]pyrazol-3-yl)-amine] | 7.08 | 55% | 7.88
16 | COc1cccc(Nc2[nH]nc3c2C(C)c2cc(OC)c(OC)cc2-3)c1 (stereo not shown) [Compound 253, (6,7-Dimethoxy-4-methyl-2,4-dihydro-indeno[1,2-c]pyrazol-3-yl)-(3-methoxy-phenyl)-amine] | 7.42 | 94% | 7.78

Row | Structure (SMILES) | pIC50 (c-Abl kinase) | inhibition at 10 µM [1] | pIC50 [1]
17 | COc1cccc(Nc2[nH]nc3c2Cc2cc(OC)c(OC)cc2-3)c1 [Compound 29, (6,7-Dimethoxy-2,4-dihydro-indeno[1,2-c]pyrazol-3-yl)-(3-methoxy-phenyl)-amine] | 8.30 | 99% | –
18 | COc1cc2c(cc1OC)C(C)c1c-2n[nH]c1Nc1cccc(Br)c1 (stereo not shown) [Compound 256, (3-Bromo-phenyl)-(6,7-dimethoxy-4-methyl-2,4-dihydro-indeno[1,2-c]pyrazol-3-yl)-amine] | 7.26 | 89% | 8.10
19 | COc1cc2c(cc1OCCCn1ccnc1)Cc1c-2n[nH]c1Nc1cccc(F)c1 [Compound 226, (3-Fluoro-phenyl)-[6-(3-imidazol-1-yl-propoxy)-7-methoxy-2,4-dihydro-indeno[1,2-c]pyrazol-3-yl]-amine] | 6.61 | 102% | 8.52
20 | Fc1cccc(Nc2[nH]nc3c2Cc2ccccc2-3)c1 [Compound 337, (2,4-Dihydro-indeno[1,2-c]pyrazol-3-yl)-(3-fluoro-phenyl)-amine] | 5.56 | 100% | 8.06
21 | COc1cc2c(cc1OCC(O)CO)Cc1c-2n[nH]c1NCc1c(F)cccc1F (stereo not shown) [Compound 457, 3-[3-(2,6-Difluoro-benzylamino)-7-methoxy-2,4-dihydro-indeno[1,2-c]pyrazol-6-yloxy]-propane-1,2-diol] | 8.40 | 100% | 8.47
22 | CCOc1cc2c(cc1OCCCO)-c1n[nH]c(Nc3cccnc3)c1C2 [Compound 371, 3-[6-Ethoxy-3-(pyridin-3-ylamino)-2,4-dihydro-indeno[1,2-c]pyrazol-7-yloxy]-propan-1-ol] | 6.04 | 100% | 7.32
23 | CCC1c2cc(OC)c(OC)cc2-c2n[nH]c(Nc3cccc(Cl)c3)c21 (stereo not shown) [Compound 419, (3-Chloro-phenyl)-(4-ethyl-6,7-dimethoxy-2,4-dihydro-indeno[1,2-c]pyrazol-3-yl)-amine] | 6.53 | 100% | 7.21
24 | COc1ccc(Nc2[nH]nc3c2Cc2cc(F)ccc2-3)cc1OC [Compound 205, (3,4-Dimethoxy-phenyl)-(6-fluoro-2,4-dihydro-indeno[1,2-c]pyrazol-3-yl)-amine] | 6.48 | 86% | 7.33
25 | CN(C)CCCOc1ccc2c(c1)Cc1c-2n[nH]c1Nc1cccc(F)c1 [Compound 160, [6-(3-Dimethylamino-propoxy)-2,4-dihydro-indeno[1,2-c]pyrazol-3-yl]-(3-fluoro-phenyl)-amine] | 5.99 | 94.5% | 7.23
26 | COc1cccc(Nc2[nH]nc3c2Cc2cc(OCCCN4CCCC4)c(OC)cc2-3)c1 [Compound 156, (3-Methoxy-phenyl)-[7-methoxy-6-(3-pyrrolidin-1-yl-propoxy)-2,4-dihydro-indeno[1,2-c]pyrazol-3-yl]-amine] | 7.05 | 87.5% | 9.00
27 | COc1cc2c(cc1OCCCO)Cc1c-2n[nH]c1NCc1c(Cl)cccc1Cl [Compound 448, 3-[3-(2,6-Dichloro-benzylamino)-7-methoxy-2,4-dihydro-indeno[1,2-c]pyrazol-6-yloxy]-propan-1-ol] | 8.52 | 100% | 8.75
28 | COc1cc2c(cc1F)Cc1c-2n[nH]c1Nc1ccc(F)c(Cl)c1 [Compound 359, (3-Chloro-4-fluoro-phenyl)-(6-fluoro-7-methoxy-2,4-dihydro-indeno[1,2-c]pyrazol-3-yl)-amine] | 6.84 | 98.5% | 7.38
29 | COc1cc2c(cc1OCC(O)CO)Cc1c-2n[nH]c1Nc1ccc(F)c(Cl)c1 (stereo not shown) [Compound 261, 3-[3-(3-Chloro-4-fluoro-phenylamino)-7-methoxy-2,4-dihydro-indeno[1,2-c]pyrazol-6-yloxy]-propane-1,2-diol] | 7.19 | 71% | 8.00
30 | COc1cc2c(cc1OCCCO)Cc1c-2n[nH]c1Nc1cccc(F)c1 [Compound 265, 3-[3-(3-Fluoro-phenylamino)-7-methoxy-2,4-dihydro-indeno[1,2-c]pyrazol-6-yloxy]-propan-1-ol] | 7.07 | 63% | 8.26
31 | COc1cc2c(cc1OC)-c1n[nH]c(Nc3cccc(C)c3)c1C2 [Compound 32, (6,7-Dimethoxy-2,4-dihydro-indeno[1,2-c]pyrazol-3-yl)-m-tolyl-amine] | 8.70 | 79% | –
